Literature values, collected in PubChem BioAssay AID1259409 (Chemical Carcinogenesis Research Information System (CCRIS), 2018).

Tested on: rodent chemically induced tumor inhibition, incidence and multiplicity
Experiment: CCRIS tumor inhibitor studies

O=c1ccc2cc(O)c(O)cc2o1
tumour outcome (control, treated, inhibition, significance) (Carcinogen: 7,12-DIMETHYLBENZ[A]ANTHRACENE, 57-97-6, Dose [Inhibitor]: 0, 0.03% IN HIGH-FAT (20% SOYBEAN OIL) DIET FOR 19 WK BEGINNING 1 WK POST CARCINOGEN DOSE (STUDY DURATION: 20 WK), Route [Inhibitor]: ORAL, Species: RAT, Strain/Sex: SPRAGUE-DAWLEY/FEMALE, Target Tissue: Type of Lesion: MAMMARY GLAND: TUMOR, Dose [Carcinogen]: 5 MG ONCE, Promoter: NONE USED): 13/15 (87%), 8/15 (53%), 39%, p<0.05 | tumour outcome (control, treated, inhibition, significance) (Carcinogen: 7,12-DIMETHYLBENZ[A]ANTHRACENE, 57-97-6, Dose [Inhibitor]: 0, 0.03% IN HIGH-FAT (20% SOYBEAN OIL) DIET FOR 20 WK BEGINNING 1 WK POST CARCINOGEN DOSE (STUDY DURATION: 21 WK), Route [Inhibitor]: ORAL, Species: RAT, Strain/Sex: SPRAGUE-DAWLEY/FEMALE, Target Tissue: Type of Lesion: MAMMARY GLAND: ADENOCARCINOMA, Dose [Carcinogen]: 5 MG ONCE, Promoter: NONE USED): 17/20 (85%), 10/19 (53%), 38%, p<0.05 | tumour outcome (control, treated, inhibition, significance) (Carcinogen: 7,12-DIMETHYLBENZ[A]ANTHRACENE, 57-97-6, Dose [Inhibitor]: 0, 0.03% IN LOW-FAT (0.5% SOYBEAN OIL) DIET FOR 19 WK BEGINNING 1 WK POST CARCINOGEN DOSE (STUDY DURATION: 20 WK), Route [Inhibitor]: ORAL, Species: RAT, Strain/Sex: SPRAGUE-DAWLEY/FEMALE, Target Tissue: Type of Lesion: MAMMARY GLAND: TUMOR, Dose [Carcinogen]: 5 MG ONCE, Promoter: NONE USED): 8/15 (53%), 3/15 (20%), 62%, not significant | tumour outcome (control, treated, inhibition, significance) (Carcinogen: 7,12-DIMETHYLBENZ[A]ANTHRACENE, 57-97-6, Dose [Inhibitor]: 0, 0.03% IN LOW-FAT (0.5% SOYBEAN OIL) DIET FOR 20 WK BEGINNING 1 WK POST CARCINOGEN DOSE (STUDY DURATION: 21 WK), Route [Inhibitor]: ORAL, Species: RAT, Strain/Sex: SPRAGUE-DAWLEY/FEMALE, Target Tissue: Type of Lesion: MAMMARY GLAND: ADENOCARCINOMA, Dose [Carcinogen]: 5 MG ONCE, Promoter: NONE USED): 10/18 (56%), 4/22 (18%), 68%, p<0.05 | tumour outcome (control, treated, inhibition, significance) (Carcinogen: N-METHYL-N-NITROSOUREA, 684-93-5, Dose [Inhibitor]: 0, 0.03% IN DIET FOR 24 WK BEGINNING 1 WK POST CARCINOGEN DOSE (STUDY DURATION: 25 WK), Route [Inhibitor]: ORAL, Species: RAT, Strain/Sex: SPRAGUE-DAWLEY/FEMALE, Target Tissue: Type of Lesion: MAMMARY GLAND: TUMOR, Dose [Carcinogen]: 50 MG/KG ONCE, Promoter: NONE USED): 24/30 (80%), 17/31 (55%), 31%, p<0.05

O=C(/C=C/c1ccccc1)c1ccccc1O
tumour outcome (control, treated, inhibition, significance) (Carcinogen: 4-NITROQUINOLINE-1-OXIDE, 56-57-5, Dose [Inhibitor]: 0, 500 PPM IN DIET FOR 10 WK BEGINNING 1 WK PRIOR TO CARCINOGEN DOSE (STUDY DURATION: 32 WK), Route [Inhibitor]: ORAL, Species: RAT, Strain/Sex: F344/MALE, Target Tissue: Type of Lesion: TONGUE: CARCINOMA, Dose [Carcinogen]: 20 PPM IN DRINKING WATER FOR 8 WK, Promoter: NONE USED): 9/15 (60%), 2/16 (13%), 78%, p<0.05 | tumour outcome (control, treated, inhibition, significance) (Carcinogen: 4-NITROQUINOLINE-1-OXIDE, 56-57-5, Dose [Inhibitor]: 0, 500 PPM IN DIET FOR 10 WK BEGINNING 1 WK PRIOR TO CARCINOGEN DOSE (STUDY DURATION: 32 WK), Route [Inhibitor]: ORAL, Species: RAT, Strain/Sex: F344/MALE, Target Tissue: Type of Lesion: TONGUE: PAPILLOMA, Dose [Carcinogen]: 20 PPM IN DRINKING WATER FOR 8 WK, Promoter: NONE USED): 4/15 (27%), 1/16 (6%), 78%, not significant | tumour outcome (control, treated, inhibition, significance) (Carcinogen: 4-NITROQUINOLINE-1-OXIDE, 56-57-5, Dose [Inhibitor]: 0, 500 PPM IN DIET FOR 22 WK BEGINNING 1 WK POST CARCINOGEN TREATMENT (STUDY DURATION: 32 WK), Route [Inhibitor]: ORAL, Species: RAT, Strain/Sex: F344/MALE, Target Tissue: Type of Lesion: TONGUE: CARCINOMA, Dose [Carcinogen]: 20 PPM IN DRINKING WATER FOR 8 WK, Promoter: NONE USED): 9/15 (60%), 3/16 (19%), 68%, p<0.05 | tumour outcome (control, treated, inhibition, significance) (Carcinogen: 4-NITROQUINOLINE-1-OXIDE, 56-57-5, Dose [Inhibitor]: 0, 500 PPM IN DIET FOR 22 WK BEGINNING 1 WK POST CARCINOGEN TREATMENT (STUDY DURATION: 32 WK), Route [Inhibitor]: ORAL, Species: RAT, Strain/Sex: F344/MALE, Target Tissue: Type of Lesion: TONGUE: PAPILLOMA, Dose [Carcinogen]: 20 PPM IN DRINKING WATER FOR 8 WK, Promoter: NONE USED): 4/15 (27%), 0/16 (0%), 100%, p<0.05

O=C1OCc2ccccc21
tumour outcome (control, treated, inhibition, significance) (Carcinogen: BENZO[A]PYRENE, 50-32-8, Dose [Inhibitor]: 0.034 MMOL/G IN DIET BEGINNING 1 WK PRIOR TO FIRST CARCINOGEN DOSE AND CONTINUING FOR 3 D POST LAST CARCINOGEN DOSE (STU, Route [Inhibitor]: ORAL, Species: MOUSE, Strain/Sex: ICR/FEMALE, Target Tissue: Type of Lesion: FORESTOMACH: TUMOR, Dose [Carcinogen]: 1 MG IN 0.2 ML CORN OIL 2/WK FOR 4 WK, Promoter: NONE USED): 95%, 95%, 0%, not significant

COc1ccc2cc1Oc1ccc(cc1)C[C@H]1c3cc(c(OC)cc3CCN1C)Oc1c(OC)c(OC)cc3c1[C@@H](C2)N(C)CC3
tumour outcome (control, treated, inhibition, significance) (Carcinogen: 7,12-DIMETHYLBENZ[A]ANTHRACENE, 57-97-6, Dose [Inhibitor]: 0, 2 UMOL 2/WK 30 MIN PRIOR TO EACH PROMOTER DOSE BEGINNING 1 WK POST CARCINOGEN DOSE (STUDY DURATION: 18 WK), Route [Inhibitor]: DERMAL, Species: MOUSE, Strain/Sex: ICR/FEMALE, Target Tissue: Type of Lesion: SKIN: PAPILLOMA, Dose [Carcinogen]: 50 UG ONCE, Promoter: 12-O-TETRADECANOYLPHORBOL-13-ACETATE, 16561-29-8): 100%, 27%, 73%, not calculated

Cn1cnc2[nH]c(=O)[nH]c(=O)c21
tumour outcome (control, treated, inhibition, significance) (Carcinogen: URETHANE, 51-79-6, Dose [Inhibitor]: 0.05 UMOL/G BW GIVEN AT 6 HR INTERVALS DURING THE PERIOD OF 0 TO 36 HR AFTER CARCINOGEN TREATMENT FOLLOWED BY 5 MO OBSER, Route [Inhibitor]: INTRAPERITONEAL, Species: MOUSE, Strain/Sex: ICR/FEMALE, Target Tissue: Type of Lesion: LUNG: PAPILLARY ADENOMA, Dose [Carcinogen]: 0.1 MG/G BW ONCE, Promoter: NONE USED): 31/59 (53%), 18/48 (38%), 28%, p 0.12 | tumour outcome (control, treated, inhibition, significance) (Carcinogen: URETHANE, 51-79-6, Dose [Inhibitor]: 0.25 UMOL/G BW 1/D DURING THE PERIOD OF 5 TO 9 D AFTER CARCINOGEN TREATMENT FOLLOWED BY OBSERVATION PERIOD UNTIL END OF, Route [Inhibitor]: INTRAPERITONEAL, Species: MOUSE, Strain/Sex: ICR/FEMALE, Target Tissue: Type of Lesion: LUNG: PAPILLARY ADENOMA, Dose [Carcinogen]: 1 MG/G BW ONCE, Promoter: NONE USED): 49/53 (93%), 43/62 (69%), 26%, p<0.01
